The record followed here is paper PMC9532951, “Identification and characterization of a novel SNAT2 (SLC38A2) inhibitor reveals synergy with glucose transport inhibition in cancer cells” (Frontiers in Pharmacology, 2022).

What all share (assay type): cell-based, human
Assay [1] deals with HCC1806 cells. Put plainly: Growth assay (IncuCyte confluence), HCC1806. As to conditions: HCC1806, growth medium. The protocol: Cells were seeded on 96-well flat bottom plates at approximately 3000 cells/well and incubated in growth medium (DMEM/F12 supplemented with 10% FBS, 2 mM glutamine) for 24 h. The next day, the growth medium was aspirated and exchanged with 300 μL/well of growth medium containing compounds at the indicated concentration. For live cell analysis, plates were placed in the IncuCyte system (Essen Bioscience), which was housed in a cell incubator (37°C, humidified atmosphere composed of 95% air and 5% CO2) and confluence measured at 6-h intervals or at the assay endpoint when untreated control cells reached a confluency >90%. Antibiotics (10 U/mL penicillin and 10 μg/ml streptomycin) were included in the treatment solutions.
Growth curves were generated using the Gompertz function of OriginPro software: y=ae^−e^(−k(x−xc))
Where a is the maximum confluence or upper asymptote, k is the growth rate coefficient, xc is the time point at which 50% confluence is reached (inflection point) and e is Euler’s number. Cell growth data are shown as % confluence.

Assay [2] has as its system HCC1806 cells. Kind of assay: Assay of glycolytic activity (extracellular lactate). As to conditions: 57E 20 μM. The protocol: Glycolytic activity was measured by detecting extracellular lactate levels over a 48-h time course. HCC1806 and HPAFII cells were seeded on a 24-well plate at approximately 500,000 and 700,000 cells/well, respectively, and incubated in growth medium overnight. The following day, the growth medium was aspirated and each well was washed once with growth medium and 1.3 ml of the treatment solution was added to begin the time-course. In addition to sampling the medium at the start of the experiment, 50 μL was collected from each well at the following time points: 9, 24 and 48 h. Samples were stored at −20°C until further use. Lactate was detected by an enzymatic assay, which consisted of combining in microcentrifuge tubes: 5 μl of sample, 45 μl of water; 25 μl of 40 mM NAD^+; 421 μl of buffer (1M glycine, 600 mM hydrazine sulfate, 5.6 mM EDTA; adjusted to pH 9.5 with sodium hydroxide); and 4 μL of L-lactate dehydrogenase solved at 300U/mL (3.33 mg/ml). The tubes were briefly vortexed and incubated for 15 min before transferring 200 μL of the mixture to a 96-well plate. The calibration curve spanned final concentrations from 5 to 500 μM. Absorbance was measured at 340 nm to detect NADH. Lactate production was normalised to total cellular protein per well as measured by the Bradford assay.

The next assay relates to OVCAR3 cells. Kind of assay: Growth assay (IncuCyte confluence), OVCAR3. In a few lines:
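OVCAR3 cells were seeded at about 3000 cells/well in 96-well plates in DMEM/F12 with 10% FBS and 2 mM glutamine for 24 h. They then received 300 μL/well of medium with compounds plus penicillin/streptomycin. Plates sat in an IncuCyte at 37°C and 5% CO2, and confluence was imaged every 6 h or at the endpoint once untreated controls passed 90%. Growth is given as % confluence, and curves were fitted with the Gompertz function in OriginPro.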

The test system of another assay is SNAT1 and SNAT2. Kind of assay: FMP assay: inhibition of glutamine-induced membrane depolarisation in amino acid depleted HCC1806 cells. The protocol: The FLIPR Membrane Potential Blue Explorer Kit (Molecular Devices) was used to characterise inhibitors and to optimise a high-throughput compound screen. Cells were seeded at approximately 60,000 cells/well on a 96-well plate and allowed to attach and grow overnight in a cell incubator. […] Cells were then washed once with mHBSS and incubated with 50 µl of the mHBSS-resuspended FMP assay dye and 50 µl of mHBSS (with or without inhibitors) and incubated at room temperature for 30 min. The plate was then placed in an EnSpire Multimode plate reader (PerkinElmer) and four sequential measurements of fluorescence were recorded as a baseline reference. Immediately after the baseline measurements were taken, 25 µl of 5 mM glutamine dissolved in mHBSS was injected into each well and the plate was shaken orbitally for 5 s before a series of consecutive fluorescence measurements were taken. The excitation wavelength was set to 530 nm and the emission was detected at 565 nm. The Δ fluorescent signal reported in the figures was taken 30 s after substrate addition. After the assay was complete, the liquid content of the plate was carefully removed, and the cell monolayer inspected to ensure it remained intact throughout the course of the assay.
IC50 were calculated using equation y=ymax(1−x/x+IC50)

Setting [3] is: HCC1806, second column group headed UNINDUCED (c11-c19), t=-30 s, glutamine introduced at t=0, replicates 1-3.
The mark [4] stands for this setting: HCC1806 UNINDUCED (c1-c9), t=0 s.
Setting [5] is: HCC1806 UNINDUCED (c1-c9), t=15 s.
Where [6] appears, read: HCC1806 UNINDUCED (c1-c9), t=30 s.
The mark [7] stands for this setting: HCC1806 UNINDUCED (c1-c9), t=45 s.
The mark [8] stands for this setting: HCC1806 UNINDUCED (c1-c9), t=60 s.
Where [9] appears, read: HCC1806 UNINDUCED (c1-c9), t=75 s.
Setting [10] is: HCC1806 UNINDUCED (c1-c9), t=90 s.
Setting [11] is: HCC1806 UNINDUCED (c1-c9), t=105 s.
Setting [12] is: HCC1806 UNINDUCED (c1-c9), t=120 s.
The mark [13] stands for this setting: HCC1806 UNINDUCED (c1-c9), t=135 s.
Where [14] appears, read: HCC1806 UNINDUCED (c1-c9), t=-15 s.
[15] abbreviates: HCC1806 UNINDUCED (c1-c9), t=-30 s, glutamine introduced at t=0, replicates 1-3.
The mark [16] stands for this setting: second group headed UNINDUCED (c11-c19), t=0 s.
Setting [17] is: second group headed UNINDUCED (c11-c19), t=15 s.
Setting [18] is: second group headed UNINDUCED (c11-c19), t=30 s.
[19] abbreviates: second group headed UNINDUCED (c11-c19), t=45 s.
Where [20] appears, read: second group headed UNINDUCED (c11-c19), t=60 s.
Where [21] appears, read: second group headed UNINDUCED (c11-c19), t=75 s.
The mark [22] stands for this setting: second group headed UNINDUCED (c11-c19), t=90 s.
Where [23] appears, read: second group headed UNINDUCED (c11-c19), t=105 s.
Where [24] appears, read: second group headed UNINDUCED (c11-c19), t=120 s.
[25] abbreviates: second group headed UNINDUCED (c11-c19), t=135 s.
Setting [26] is: second group headed UNINDUCED (c11-c19), t=-15 s.

Where “and” joins values, the source holds several entries; their conditions need not be identical. Equal entries are not always repeated.

Turning to `Cc1ccc(S(=O)(=O)N(C)c2ccsc2C(=O)NCc2ccccc2C(F)(F)F)cc1` [Compound 57_E, 3-(N-methyl (4-methylphenyl)sulfonamido)-N-(2-trifluoromethylbenzyl)thiophene-2-carboxamide], the tolerated concentration result in the assay with HCC1806 cells [1] is on record as “up to 30 μM”. In the assay with HCC1806 cells [2], the lactate production entry was “increased”. Also, the “Growth (Figure 6A)” value in the assay on OVCAR3 cells (concentration 1) is 94.3 and 98.2 and 97.5; with OVCAR3 cells (concentration 3), 91.1 and 97.6 and 98.2; in the assay with OVCAR3 cells (concentration 10), 93.85 and 97.6 and 98.05; with OVCAR3 cells (concentration 30), 90.7 and 97.95; with OVCAR3 cells (concentration 100) it was 89.25 and 92.95 and 91.35.
In the case of `N[C@@H](CCC(=O)NO)C(=O)O` [GHX, L-glutamic acid γ-monohydroxamate], the “Mean (delta) fluorescence signal (%)” value was 92.4453% in the assay on SNAT1 and SNAT2 (GHX concentration 0.005); 88.1978% with SNAT1 and SNAT2 (GHX concentration 0.05); 81.9185% in the assay on SNAT1 and SNAT2 (GHX concentration 0.1); 62.0593% in the assay on SNAT1 and SNAT2 (GHX concentration 0.2); 45.7050% in the assay on SNAT1 and SNAT2 (GHX concentration 0.5); 28.4974% with SNAT1 and SNAT2 (GHX concentration 1). Further, the “Mean (delta) fluorescence signal (%)” value in the assay with SNAT1 and SNAT2 (GHX concentration 3) is 5.9801%. Moreover, the FMP fluorescence reading in the assay with SNAT1 and SNAT2 (setting [3]) was 80140 and 84104 and 92453; in the assay with SNAT1 and SNAT2 (setting [4]) it was 95009 and 106958 and 105072; in the assay on SNAT1 and SNAT2 (setting [5]), 92832 and 105585 and 105488; with SNAT1 and SNAT2 (setting [6]) it was 92285 and 105041 and 105362; in the assay on SNAT1 and SNAT2 (setting [7]) it was 92217 and 104713 and 105477; in the assay with SNAT1 and SNAT2 (setting [8]) it was 92501 and 104852 and 105149. The FMP fluorescence reading in the assay with SNAT1 and SNAT2 (setting [9]) was 92072 and 104235 and 104746; in the assay on SNAT1 and SNAT2 (setting [10]), 91505 and 104029 and 104931; with SNAT1 and SNAT2 (setting [11]), 91498 and 103606 and 105160; with SNAT1 and SNAT2 (setting [12]) it was 91509 and 103340 and 104992; in the assay with SNAT1 and SNAT2 (setting [13]), 91754 and 103170 and 104515; in the assay on SNAT1 and SNAT2 (setting [14]), 94947 and 106966 and 104913. For the same compound, the FMP fluorescence reading is 94749 and 106497 and 104978 in the assay with SNAT1 and SNAT2 (setting [15]); 79859 and 84357 and 91947 in the assay with SNAT1 and SNAT2 (setting [16]); 80630 and 83515 and 91899 in the assay on SNAT1 and SNAT2 (setting [17]); 79854 and 83032 and 91748 in the assay on SNAT1 and SNAT2 (setting [18]); 79700 and 82661 and 90895 in the assay on SNAT1 and SNAT2 (setting [19]); 79052 and 82273 and 90365 in the assay with SNAT1 and SNAT2 (setting [20]). In addition, the FMP fluorescence reading with SNAT1 and SNAT2 (setting [21]) was 78466 and 81641 and 89825; in the assay on SNAT1 and SNAT2 (setting [22]) it was 78374 and 80769 and 89707; in the assay on SNAT1 and SNAT2 (setting [23]), 77755 and 80422 and 88694; with SNAT1 and SNAT2 (setting [24]), 77065 and 79988 and 88225; with SNAT1 and SNAT2 (setting [25]) it was 76289 and 79358 and 87841; in the assay with SNAT1 and SNAT2 (setting [26]), 80373 and 84318 and 91914. The IC50 (commonly the midpoint of a concentration-inhibition curve) in the assay on SNAT1 and SNAT2 (glutamine induced depolarisation, HCC1806 AA- (24h), n = 3) was found to be 330 ± 160 µM.
Regarding `NC(=O)CC[C@H](N)C(=O)O` [Glutamine, glutamine], the FMP fluorescence reading was 48604 and 53579 and 57451 in the assay on SNAT1 and SNAT2 (setting [3]); 80152 and 93008 and 95175 in the assay on SNAT1 and SNAT2 (setting [4]); 81192 and 94874 and 97430 in the assay with SNAT1 and SNAT2 (setting [5]); 81634 and 95549 and 97622 in the assay on SNAT1 and SNAT2 (setting [6]); 82112 and 96387 and 97827 in the assay on SNAT1 and SNAT2 (setting [7]); 82774 and 96256 and 98257 with SNAT1 and SNAT2 (setting [8]). The FMP fluorescence reading in the assay with SNAT1 and SNAT2 (setting [9]) is 83212 and 96832 and 98303; in the assay with SNAT1 and SNAT2 (setting [10]), 83103 and 97466 and 98281; with SNAT1 and SNAT2 (setting [11]), 83167 and 97358 and 97714; with SNAT1 and SNAT2 (setting [12]) it was 83214 and 97405 and 97828; in the assay with SNAT1 and SNAT2 (setting [13]), 83426 and 97359 and 98137; in the assay with SNAT1 and SNAT2 (setting [14]) it was 80647 and 93663 and 95145. Also, the FMP fluorescence reading is 79899 and 92924 and 94884 in the assay with SNAT1 and SNAT2 (setting [15]); 48277 and 53613 and 57279 with SNAT1 and SNAT2 (setting [16]); 87410 and 95992 and 106048 in the assay on SNAT1 and SNAT2 (setting [17]); 92514 and 100953 and 110310 in the assay with SNAT1 and SNAT2 (setting [18]); 96611 and 104700 and 113605 with SNAT1 and SNAT2 (setting [19]); 98488 and 108054 and 116646 with SNAT1 and SNAT2 (setting [20]). Moreover, the FMP fluorescence reading in the assay with SNAT1 and SNAT2 (setting [21]) is 100460 and 110105 and 118023; in the assay with SNAT1 and SNAT2 (setting [22]) it was 101322 and 111642 and 119920; with SNAT1 and SNAT2 (setting [23]) it was 102745 and 112818 and 120694; in the assay with SNAT1 and SNAT2 (setting [24]), 102428 and 112661 and 120909; with SNAT1 and SNAT2 (setting [25]) it was 102525 and 112308 and 120142; with SNAT1 and SNAT2 (setting [26]), 48090 and 53580 and 57674.
